For this assay, the system named is dogs, whose liver functions were not improved after the administration of SAMe. Put plainly: Administration of SAMe followed by administration of Composition A1 to dogs; serum ALT, AST. It counts as in vivo. The conditions noted are these: SAMe alone to dogs, clinically observed. Here is the method: Therefore, Composition A1 was administered to 3 dogs, whose liver functions were not improved after the administration of SAMe. And the serum biochemistry values related to the liver function, ALT, AST and ALKP, were examined.

Regarding `C[S+](CC[C@H](N)C(=O)[O-])C[C@H]1O[C@@H](n2cnc3c(N)ncnc32)[C@H](O)[C@@H]1O` (stereo partly shown) [SAMe, S-adenosylmethionine], the “improvement of liver functions” value is given as “liver functions still cannot be improved”.

The values are drawn from patent US20190365697A1, “Method for Treating Liver Dysfunction” (PROFEAT BIOTECHNOLOGY CO., LTD., priority 2017, published 2019).
